Measurements as given in patent US20250171438A1 (Agios Pharmaceuticals, Inc., priority 2022, published 2025).

Target: T1, human PAH with the R408W mutation (Homo sapiens, UniProt P00439, R408W)
T1 construct: expressed in transfected cells
T1 sequence (P00439 1-452 R408W): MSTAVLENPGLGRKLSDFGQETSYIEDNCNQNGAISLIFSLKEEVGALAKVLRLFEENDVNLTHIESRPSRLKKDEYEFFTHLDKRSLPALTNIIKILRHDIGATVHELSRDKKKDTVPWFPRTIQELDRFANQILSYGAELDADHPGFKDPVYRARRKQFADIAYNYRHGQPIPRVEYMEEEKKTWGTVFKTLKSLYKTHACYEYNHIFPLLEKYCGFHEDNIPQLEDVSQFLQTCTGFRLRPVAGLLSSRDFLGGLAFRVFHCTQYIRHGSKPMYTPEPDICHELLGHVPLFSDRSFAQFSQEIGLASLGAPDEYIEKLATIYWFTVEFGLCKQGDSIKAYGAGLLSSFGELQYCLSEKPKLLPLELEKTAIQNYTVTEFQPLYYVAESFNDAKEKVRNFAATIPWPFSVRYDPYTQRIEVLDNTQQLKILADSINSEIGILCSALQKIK
Test: Cell Based Phenylalanine Flux Assay
Conditions: A375 cells expressing human R408W PAH; 24 hrs with compound; 13C-Tyrosine by LC-MS; average where tested multiple times; read-out: AC50
Method: Compounds were resuspended in DMSO, and 2-fold serial dilutions were performed to generate a 10-point dose curve. Compounds were added to plated cells in a total volume of 100 pal, and a final DMSO concentration of 0.5%. Each compound was tested in duplicate. Following compound addition, cells were placed in a 5% CO2, 37° C. tissue culture incubator for 24 hrs. After the incubation period, 20 μM sepiapterin and 800 μM 13C9,15N-Phenylalanine were added. After 4 hours, cell media was removed. An aliquot of 10 μl of cell media was combined with 200 μl of extraction buffer (80% acetonitrile/20% H2O) for each well. Determination of ^13C-Tyrosine concentration was assessed by liquid chromatography mass spectrometry.
Where a compound was tested multiple times, the average value of the tests is reported.

Structure (SMILES) | AC50 [µM]
Cc1nnc(CCC(=O)N2CCc3[nH]cnc3C2c2nc3ccccc3s2)o1 (stereo not drawn) [listing 1 of 2 here] | > 5
Cn1cc(-c2cnc(CC(=O)N3CCc4[nH]cnc4C3c3nc4ccccc4s3)s2)cn1 (stereo not drawn) [listing 1 of 2 here] | > 5
O=C(Cc1ncc(-c2ccccc2)s1)N1CCc2[nH]cnc2C1c1nc2ccccc2s1 (stereo not drawn) [listing 1 of 2 here] | > 5
O=C(Cc1coc(C(F)F)n1)N1CCc2[nH]cnc2C1c1nc2ccccc2s1 (stereo not drawn) [listing 1 of 2 here] | > 5
O=C(CCc1nnc(C(F)F)o1)N1CCc2[nH]cnc2C1c1nc2ccccc2s1 (stereo not drawn) [listing 1 of 2 here] | > 5
Cc1ncc(CC(=O)N2CCc3[nH]cnc3C2c2nc3ccccc3s2)o1 (stereo not drawn) [listing 1 of 2 here] | > 5
O=C(Cc1ccccn1)N1CCc2[nH]cnc2C1c1nc2ccccc2s1 (stereo not drawn) [listing 1 of 2 here] | > 5
O=C(Cc1cnn2ccccc12)N1CCc2[nH]cnc2C1c1nc2ccccc2s1 (stereo not drawn) [listing 1 of 2 here] | > 5
O=C(Cc1cscn1)N1CCc2[nH]cnc2C1c1nc2ccccc2s1 (stereo not drawn) | > 5
O=C(Cc1cncs1)N1CCc2[nH]cnc2C1c1nc2ccccc2s1 (stereo not drawn) [listing 1 of 2 here] | > 5
O=C(Cc1nccs1)N1CCc2[nH]cnc2C1c1nc2cccc(F)c2s1 (stereo not drawn) [listing 1 of 2 here] | > 5
O=C(c1cnn(CC(F)(F)F)c1)N1CCc2[nH]cnc2C1c1nc2ccccc2s1 (stereo not drawn) [listing 1 of 2 here] | > 5
Cc1nc(-c2ccccn2)c(C(=O)N2CCc3[nH]cnc3C2c2nc3ccccc3s2)o1 (stereo not drawn) [listing 1 of 2 here] | > 5
O=C(c1oc(-c2ccccc2)nc1-c1ccccc1)N1CCc2[nH]cnc2C1c1nc2ccccc2s1 (stereo not drawn) [listing 1 of 2 here] | > 5
Cn1cc(-c2cccc(C(=O)N3CCc4[nH]cnc4C3c3nc4ccccc4s3)c2)cn1 (stereo not drawn) | > 5
O=C(c1nc(C(F)(F)F)co1)N1CCc2[nH]cnc2C1c1nc2ccccc2s1 (stereo not drawn) | 1 to 5
O=C(c1nc(Cl)cs1)N1CCc2[nH]cnc2C1c1nc2c(F)cccc2s1 (stereo not drawn) [listing 1 of 2 here] | > 5
Cc1nc(N2CCOCC2)oc1C(=O)N1CCCc2[nH]cnc2C1c1nc2ccccc2s1 (stereo not drawn) [listing 1 of 2 here] | > 5
Cc1nc(-c2ccccn2)sc1C(=O)N1CCc2[nH]cnc2C1c1nc2ccccc2s1 (stereo not drawn) [listing 1 of 2 here] | > 5
O=C(c1nnc(-c2ccccn2)o1)N1CCCc2[nH]cnc2C1c1nc2ccccc2s1 (stereo not drawn) | > 5
O=C(c1cnn2cc(CCc3ccccc3)ccc12)N1CCc2[nH]cnc2C1c1nc2ccccc2s1 (stereo not drawn) [listing 1 of 2 here] | > 5
O=C(c1cnn2cc(N3CCCC3)ccc12)N1CCc2[nH]cnc2C1c1nc2ccccc2s1 (stereo not drawn) [listing 1 of 2 here] | > 5
O=C(c1cnn2cc(Cl)ccc12)N1CCc2nc[nH]c2C1c1nc2cc(F)ccc2s1 (stereo not drawn) [listing 1 of 2 here] | > 5
O=C(C1CC1F)N1CCc2[nH]cnc2C1c1nc2ccccc2s1 (stereo not drawn) [listing 1 of 4 here] | > 5

Structure (SMILES) | AC50 [µM]
O=C(C1CC1F)N1CCc2[nH]cnc2C1c1nc2ccccc2s1 (stereo not drawn) [listing 2 of 4 here] | > 5
O=C(N1CCC(c2ccccc2)C1)N1CCc2[nH]cnc2C1c1nc2ccccc2s1 (stereo not drawn) [listing 1 of 3 here] | > 5
O=C(N1CCC(c2ccccc2)C1)N1CCc2[nH]cnc2C1c1nc2ccccc2s1 (stereo not drawn) [listing 2 of 3 here] | > 5
c1ccc2sc(C3c4nc[nH]c4CCN3CC3CC3)nc2c1 (stereo not drawn) | > 5
O=C(Nc1ccc(F)cc1)N1CCc2[nH]cnc2C1c1nc2ccccc2s1 (stereo not drawn) [listing 1 of 2 here] | > 5
Cc1ncc(C(=O)N2CCc3[nH]cnc3C2c2nc3c(F)cccc3s2)o1 (stereo not drawn) | > 5
Cc1nc(-c2ccccn2)c(C(=O)N2CCc3[nH]cnc3C2c2nc3c(F)cccc3s2)o1 (stereo not drawn) [listing 1 of 2 here] | > 5
O=C(c1ncco1)N1CCc2[nH]cnc2C1c1nc2cc(F)ccc2s1 (stereo not drawn) [listing 1 of 2 here] | > 5
Cc1nnc(C(=O)N2CCc3[nH]cnc3C2c2nc3cc(F)ccc3s2)s1 (stereo not drawn) [listing 1 of 2 here] | > 5
O=C(c1ccno1)N1CCc2[nH]cnc2C1c1nc2ccc(F)cc2s1 (stereo not drawn) [listing 1 of 2 here] | > 5
O=C(c1ncco1)N1CCc2[nH]cnc2C1c1nc2ccc(F)cc2s1 (stereo not drawn) [listing 1 of 2 here] | > 5
COc1ccn2ncc(C(=O)N3CCc4[nH]cnc4C3c3nc4ccc(F)cc4s3)c2c1 (stereo not drawn) | 1 to 5
O=C(c1cnn2cc(F)ccc12)N1CCc2[nH]cnc2C1c1nc2ccc(F)cc2s1 (stereo not drawn) [listing 1 of 2 here] | > 5
O=C(c1cnn2cc(CO)ccc12)N1CCc2[nH]cnc2C1c1nc2ccccc2s1 (stereo not drawn) [listing 1 of 2 here] | > 5
CNCc1ccc2c(C(=O)N3CCc4[nH]cnc4C3c3nc4ccccc4s3)cnn2c1 (stereo not drawn) [listing 1 of 2 here] | > 5
Cc1nnc(CCC(=O)N2CCc3[nH]cnc3C2c2nc3ccccc3s2)o1 (stereo not drawn) [listing 2 of 2 here] | 1 to 5
O=C(Cc1coc(C(F)F)n1)N1CCc2[nH]cnc2C1c1nc2ccccc2s1 (stereo not drawn) [listing 2 of 2 here] | 1 to 5
O=C(CCc1nnc(C(F)F)o1)N1CCc2[nH]cnc2C1c1nc2ccccc2s1 (stereo not drawn) [listing 2 of 2 here] | 1 to 5
Cc1ncc(CC(=O)N2CCc3[nH]cnc3C2c2nc3ccccc3s2)o1 (stereo not drawn) [listing 2 of 2 here] | 1 to 5
O=C(Cc1cnn2ccccc12)N1CCc2[nH]cnc2C1c1nc2ccccc2s1 (stereo not drawn) [listing 2 of 2 here] | 1 to 5
O=C(Cc1cncs1)N1CCc2[nH]cnc2C1c1nc2ccccc2s1 (stereo not drawn) [listing 2 of 2 here] | 1 to 5
O=C(Cn1cncn1)N1CCc2[nH]cnc2C1c1nc2ccccc2s1 (stereo not drawn) | > 5
O=C(Cc1ccccn1)N1CCc2[nH]cnc2C1c1nc2ccccc2s1 (stereo not drawn) [listing 2 of 2 here] | 1 to 5
Cc1nnc(CC(=O)N2CCc3[nH]cnc3C2c2nc3ccccc3s2)o1 (stereo not drawn) | > 5

Structure (SMILES) | AC50 [µM]
O=C(Cc1cnco1)N1CCc2[nH]cnc2C1c1nc2ccccc2s1 (stereo not drawn) | 1 to 5
Cn1cc(-c2cnc(CC(=O)N3CCc4[nH]cnc4C3c3nc4ccccc4s3)s2)cn1 (stereo not drawn) [listing 2 of 2 here] | 1 to 5
Cc1ncoc1CC(=O)N1CCc2[nH]cnc2C1c1nc2ccccc2s1 (stereo not drawn) | 1 to 5
O=C(Cc1ncc(-c2ccccc2)s1)N1CCc2[nH]cnc2C1c1nc2ccccc2s1 (stereo not drawn) [listing 2 of 2 here] | 1 to 5
O=C(Cc1nccs1)N1CCc2[nH]cnc2C1c1nc2cccc(F)c2s1 (stereo not drawn) [listing 2 of 2 here] | 1 to 5
O=C(c1cnn(CC(F)(F)F)c1)N1CCc2[nH]cnc2C1c1nc2ccccc2s1 (stereo not drawn) [listing 2 of 2 here] | 1 to 5
O=C(c1cnc[nH]1)N1CCc2[nH]cnc2C1c1nc2ccccc2s1 (stereo not drawn) | > 5
O=C(c1nsc2ccccc12)N1CCc2[nH]cnc2C1c1nc2ccccc2s1 (stereo not drawn) | 1 to 5
O=C(c1cnco1)N1CCCc2[nH]cnc2C1c1nc2ccccc2s1 (stereo not drawn) | 1 to 5
Cc1nc(C=CC2CC2)oc1C(=O)N1CCCc2[nH]cnc2C1c1nc2ccccc2s1 (stereo not drawn) | > 5
Cc1nc(-c2ccccn2)c(C(=O)N2CCc3[nH]cnc3C2c2nc3ccccc3s2)o1 (stereo not drawn) [listing 2 of 2 here] | 1 to 5
O=C(c1oc(-c2ccccc2)nc1-c1ccccc1)N1CCc2[nH]cnc2C1c1nc2ccccc2s1 (stereo not drawn) [listing 2 of 2 here] | 1 to 5
Cc1nc(C(C)(C)O)oc1C(=O)N1CCCc2[nH]cnc2C1c1nc2ccccc2s1 (stereo not drawn) | > 5
CC(C)(O)c1nnc(C(=O)N2CCc3[nH]cnc3C2c2nc3c(F)cccc3s2)o1 (stereo not drawn) | 1 to 5
O=C(c1ocnc1-c1ccccn1)N1CCCc2[nH]cnc2C1c1nc2ccccc2s1 (stereo not drawn) | > 5
O=C(c1nc(Cl)cs1)N1CCc2[nH]cnc2C1c1nc2c(F)cccc2s1 (stereo not drawn) [listing 2 of 2 here] | 1 to 5
Cc1nc(CN2CCOCC2)oc1C(=O)N1CCCc2[nH]cnc2C1c1nc2ccccc2s1 (stereo not drawn) | > 5
Cc1nc(N2CCOCC2)oc1C(=O)N1CCCc2[nH]cnc2C1c1nc2ccccc2s1 (stereo not drawn) [listing 2 of 2 here] | 1 to 5
Cc1nc(-c2ccccn2)oc1C(=O)N1CCCc2[nH]cnc2C1c1nc2ccccc2s1 (stereo not drawn) | 1 to 5
Cc1nc(-c2ccccn2)sc1C(=O)N1CCc2[nH]cnc2C1c1nc2ccccc2s1 (stereo not drawn) [listing 2 of 2 here] | 1 to 5
c1ccc2sc(C3c4nc[nH]c4CCN3c3nnc(C4CC4)o3)nc2c1 (stereo not drawn) | 1 to 5
Cc1nnc(C(=O)N2CCc3[nH]cnc3C2c2nc3ccccc3s2)o1 (stereo not drawn) | 1 to 5
O=C(c1cnn2cc(CCc3ccccc3)ccc12)N1CCc2[nH]cnc2C1c1nc2ccccc2s1 (stereo not drawn) [listing 2 of 2 here] | 1 to 5
O=C(c1cnn2cc(C=Cc3ccccc3)ccc12)N1CCc2[nH]cnc2C1c1nc2ccccc2s1 (stereo not drawn) | > 5

Structure (SMILES) | AC50 [µM]
O=C(c1cnn2cc(N3CCCC3)ccc12)N1CCc2[nH]cnc2C1c1nc2ccccc2s1 (stereo not drawn) [listing 2 of 2 here] | 1 to 5
O=C(c1cnn2cc(Br)ccc12)N1CCc2[nH]cnc2C1c1nc2cc(F)ccc2s1 (stereo not drawn) | 1 to 5
O=C(c1cnn2cc(Cl)ccc12)N1CCc2nc[nH]c2C1c1nc2cc(F)ccc2s1 (stereo not drawn) [listing 2 of 2 here] | 1 to 5
O=C(C1CC1F)N1CCc2[nH]cnc2C1c1nc2ccccc2s1 (stereo not drawn) [listing 3 of 4 here] | 1 to 5
O=C(C1CC1F)N1CCc2[nH]cnc2C1c1nc2ccccc2s1 (stereo not drawn) [listing 4 of 4 here] | 1 to 5
O=C(N1CCC(c2ccccc2)C1)N1CCc2[nH]cnc2C1c1nc2ccccc2s1 (stereo not drawn) [listing 3 of 3 here] | 1 to 5
Cc1ncoc1C(=O)N1CC(C)(C)c2[nH]cnc2C1c1nc2ccccc2s1 (stereo not drawn) | > 5
O=C(Nc1ccc(F)cc1)N1CCc2[nH]cnc2C1c1nc2ccccc2s1 (stereo not drawn) [listing 2 of 2 here] | 1 to 5
O=C(c1ccno1)N1CCc2nc[nH]c2C1c1nc2c(F)cccc2s1 (stereo not drawn) | 1 to 5
Cc1nc(-c2ccccn2)c(C(=O)N2CCc3[nH]cnc3C2c2nc3c(F)cccc3s2)o1 (stereo not drawn) [listing 2 of 2 here] | 1 to 5
O=C(c1n[nH]c2ccccc12)N1CCc2[nH]cnc2C1c1nc2cc(F)ccc2s1 (stereo not drawn) | > 5
O=C(c1ncco1)N1CCc2[nH]cnc2C1c1nc2cc(F)ccc2s1 (stereo not drawn) [listing 2 of 2 here] | 1 to 5
O=C(c1cnco1)N1CCc2[nH]cnc2C1c1nc2cc(F)ccc2s1 (stereo not drawn) | 1 to 5
Cc1nnc(C(=O)N2CCc3[nH]cnc3C2c2nc3cc(F)ccc3s2)s1 (stereo not drawn) [listing 2 of 2 here] | 1 to 5
O=C(c1ccno1)N1CCc2[nH]cnc2C1c1nc2ccc(F)cc2s1 (stereo not drawn) [listing 2 of 2 here] | 1 to 5
O=C(c1ncco1)N1CCc2[nH]cnc2C1c1nc2ccc(F)cc2s1 (stereo not drawn) [listing 2 of 2 here] | 1 to 5
O=C(c1cnn2cc(F)ccc12)N1CCc2[nH]cnc2C1c1nc2ccc(F)cc2s1 (stereo not drawn) [listing 2 of 2 here] | 1 to 5
O=C(c1n[nH]c2ccccc12)N1CCc2[nH]cnc2C1c1nc2cccc(F)c2s1 (stereo not drawn) | 1 to 5
O=C(c1ccno1)N1CCc2[nH]cnc2C1c1nc2cccc(F)c2s1 (stereo not drawn) | 1 to 5
O=C(c1cnn2cc(CO)ccc12)N1CCc2[nH]cnc2C1c1nc2ccccc2s1 (stereo not drawn) [listing 2 of 2 here] | 1 to 5
O=C(N1CCC(O)C1)N1CCc2[nH]cnc2C1c1nc2ccccc2s1 (stereo not drawn) | 1 to 5
CNCc1ccc2c(C(=O)N3CCc4[nH]cnc4C3c3nc4ccccc4s3)cnn2c1 (stereo not drawn) [listing 2 of 2 here] | 1 to 5
O=C(c1cnco1)N1CC2(CC2)c2[nH]cnc2C1c1nc2c(F)cccc2s1 (stereo not drawn) [listing 1 of 2 here] | > 5
O=C(c1cnco1)N1CC2(CC2)c2[nH]cnc2C1c1nc2c(F)cccc2s1 (stereo not drawn) [listing 2 of 2 here] | 1 to 5
